Target: PAK5 (Homo sapiens, UniProt Q9P286)
Conditions: read-out: % inhibition at 50 nM

PAK5, sequence (Q9P286 whole entry): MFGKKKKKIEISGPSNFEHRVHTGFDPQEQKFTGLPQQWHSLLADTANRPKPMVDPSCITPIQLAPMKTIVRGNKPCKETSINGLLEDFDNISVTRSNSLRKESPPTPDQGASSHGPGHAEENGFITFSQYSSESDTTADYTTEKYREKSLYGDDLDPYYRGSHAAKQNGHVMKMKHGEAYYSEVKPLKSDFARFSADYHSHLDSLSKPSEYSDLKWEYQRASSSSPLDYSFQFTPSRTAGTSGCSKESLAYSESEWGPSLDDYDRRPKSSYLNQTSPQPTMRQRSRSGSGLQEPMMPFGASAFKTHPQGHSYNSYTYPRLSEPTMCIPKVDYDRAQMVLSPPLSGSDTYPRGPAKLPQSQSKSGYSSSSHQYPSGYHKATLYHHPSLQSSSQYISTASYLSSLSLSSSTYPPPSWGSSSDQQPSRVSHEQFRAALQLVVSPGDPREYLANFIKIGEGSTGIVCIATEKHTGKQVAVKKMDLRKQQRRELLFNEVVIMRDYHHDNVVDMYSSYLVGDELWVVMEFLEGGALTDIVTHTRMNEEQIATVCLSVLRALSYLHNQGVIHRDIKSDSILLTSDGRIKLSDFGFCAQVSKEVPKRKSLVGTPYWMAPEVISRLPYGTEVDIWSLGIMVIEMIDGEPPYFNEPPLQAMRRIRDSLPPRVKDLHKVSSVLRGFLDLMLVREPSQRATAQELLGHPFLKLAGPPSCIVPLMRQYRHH

## NC(=O)c1cnc(N[C@@H]2CCCC[C@@H]2N)nc1Nc1cccc(-n2nccn2)c1 [BIIB-057]
  inhibition at 0.05 µM: > 50%
